Test results from ChEMBL document CHEMBL5291721, “A preclinical secondary pharmacology resource illuminates target-adverse drug reaction associations of marketed drugs” (Nat Commun, 2023).

How the values were obtained:
Histamine H1 receptor [1] = biological target: T1, Histamine H1 receptor (Homo sapiens, UniProt P35367); type: functional, cell-based
Histamine H1 receptor [2] = biological target: T1, Histamine H1 receptor; type: functional, cell-based; remark: listed apart in the source
Glucagon receptor = Glucagon receptor (Homo sapiens, UniProt P47871)
[3] = biological target: T2, Endothelin receptor type B (Homo sapiens, UniProt P24530)
T2 sequence (P24530 whole entry): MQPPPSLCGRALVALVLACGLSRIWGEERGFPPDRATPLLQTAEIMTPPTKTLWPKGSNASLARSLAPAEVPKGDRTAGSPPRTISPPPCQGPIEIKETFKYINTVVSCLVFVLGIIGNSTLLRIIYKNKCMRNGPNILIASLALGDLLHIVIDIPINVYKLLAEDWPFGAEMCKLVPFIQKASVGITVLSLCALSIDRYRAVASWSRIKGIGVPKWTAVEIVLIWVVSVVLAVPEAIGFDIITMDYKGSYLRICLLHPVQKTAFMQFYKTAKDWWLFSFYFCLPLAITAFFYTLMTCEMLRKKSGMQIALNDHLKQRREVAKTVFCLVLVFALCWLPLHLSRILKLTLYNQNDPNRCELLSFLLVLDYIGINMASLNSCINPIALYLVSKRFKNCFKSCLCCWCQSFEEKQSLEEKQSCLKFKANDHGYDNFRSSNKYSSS

[4] = biological target: Hydroxycarboxylic acid receptor 2 (Homo sapiens, UniProt Q8TDS4)
[5] = biological target: Voltage-dependent N-type calcium channel subunit alpha-1B (Rattus norvegicus, UniProt Q02294); type: functional
Androgen receptor = biological target: T3, Androgen receptor (Rattus norvegicus, UniProt P15207)
T3 sequence (P15207 whole entry): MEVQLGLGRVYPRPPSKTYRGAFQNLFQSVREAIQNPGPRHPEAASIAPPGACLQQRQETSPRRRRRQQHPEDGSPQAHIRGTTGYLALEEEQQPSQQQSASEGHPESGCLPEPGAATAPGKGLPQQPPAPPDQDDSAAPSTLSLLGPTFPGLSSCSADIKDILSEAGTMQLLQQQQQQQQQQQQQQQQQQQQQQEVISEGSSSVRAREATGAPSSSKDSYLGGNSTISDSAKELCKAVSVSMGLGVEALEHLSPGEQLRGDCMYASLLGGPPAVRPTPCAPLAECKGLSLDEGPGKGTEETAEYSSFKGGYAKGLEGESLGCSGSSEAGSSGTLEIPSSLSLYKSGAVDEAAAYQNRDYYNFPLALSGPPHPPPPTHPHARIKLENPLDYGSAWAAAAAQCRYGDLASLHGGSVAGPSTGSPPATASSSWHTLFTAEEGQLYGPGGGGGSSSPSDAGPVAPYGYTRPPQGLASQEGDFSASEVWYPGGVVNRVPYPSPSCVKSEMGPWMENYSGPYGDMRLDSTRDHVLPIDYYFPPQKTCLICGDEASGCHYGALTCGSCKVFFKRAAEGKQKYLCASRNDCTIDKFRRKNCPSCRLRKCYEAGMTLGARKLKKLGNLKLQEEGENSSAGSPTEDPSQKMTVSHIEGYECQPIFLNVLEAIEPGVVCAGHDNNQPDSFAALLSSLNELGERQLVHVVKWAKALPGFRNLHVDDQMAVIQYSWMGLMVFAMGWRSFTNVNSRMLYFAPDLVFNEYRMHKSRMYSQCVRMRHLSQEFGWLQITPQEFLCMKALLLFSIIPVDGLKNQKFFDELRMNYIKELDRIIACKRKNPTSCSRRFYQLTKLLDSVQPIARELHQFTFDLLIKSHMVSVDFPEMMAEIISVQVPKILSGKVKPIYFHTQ

[6] = biological target: T4, Muscarinic acetylcholine receptor M1 (Homo sapiens, UniProt P11229)
T4 sequence (P11229 whole entry): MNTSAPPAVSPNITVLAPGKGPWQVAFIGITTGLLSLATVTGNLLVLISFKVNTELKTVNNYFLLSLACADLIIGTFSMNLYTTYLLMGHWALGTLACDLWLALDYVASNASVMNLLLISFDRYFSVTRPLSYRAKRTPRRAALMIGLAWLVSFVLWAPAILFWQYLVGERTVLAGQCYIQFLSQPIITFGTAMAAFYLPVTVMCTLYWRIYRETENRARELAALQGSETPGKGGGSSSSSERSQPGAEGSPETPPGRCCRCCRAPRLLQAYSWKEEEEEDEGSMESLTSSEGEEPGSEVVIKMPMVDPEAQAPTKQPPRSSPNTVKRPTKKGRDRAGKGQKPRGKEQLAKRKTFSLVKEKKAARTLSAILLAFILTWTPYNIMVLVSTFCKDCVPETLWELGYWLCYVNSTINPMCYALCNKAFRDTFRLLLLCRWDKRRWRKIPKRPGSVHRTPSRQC

[7] = biological target: T5, Alpha-2A adrenergic receptor (Homo sapiens, UniProt P08913)
T5 sequence (P08913 whole entry): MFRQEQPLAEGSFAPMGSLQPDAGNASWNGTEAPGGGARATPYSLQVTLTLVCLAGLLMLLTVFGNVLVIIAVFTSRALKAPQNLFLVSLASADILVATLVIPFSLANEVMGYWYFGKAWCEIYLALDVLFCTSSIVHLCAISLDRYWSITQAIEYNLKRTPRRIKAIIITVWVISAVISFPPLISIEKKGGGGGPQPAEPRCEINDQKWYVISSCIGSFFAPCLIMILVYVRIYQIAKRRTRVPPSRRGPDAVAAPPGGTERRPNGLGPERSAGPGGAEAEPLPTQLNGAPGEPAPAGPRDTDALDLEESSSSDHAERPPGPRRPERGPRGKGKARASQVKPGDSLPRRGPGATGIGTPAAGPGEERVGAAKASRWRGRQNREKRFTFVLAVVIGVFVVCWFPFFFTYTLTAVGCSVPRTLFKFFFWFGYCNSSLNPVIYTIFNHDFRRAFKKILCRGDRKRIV

Cannabinoid receptor 1 = Cannabinoid receptor 1 (Homo sapiens, UniProt P21554); type: functional
Further: assay procedure not described here.

Chain of Voltage-dependent N-type calcium channel subunit alpha-1B (Q02294 whole entry): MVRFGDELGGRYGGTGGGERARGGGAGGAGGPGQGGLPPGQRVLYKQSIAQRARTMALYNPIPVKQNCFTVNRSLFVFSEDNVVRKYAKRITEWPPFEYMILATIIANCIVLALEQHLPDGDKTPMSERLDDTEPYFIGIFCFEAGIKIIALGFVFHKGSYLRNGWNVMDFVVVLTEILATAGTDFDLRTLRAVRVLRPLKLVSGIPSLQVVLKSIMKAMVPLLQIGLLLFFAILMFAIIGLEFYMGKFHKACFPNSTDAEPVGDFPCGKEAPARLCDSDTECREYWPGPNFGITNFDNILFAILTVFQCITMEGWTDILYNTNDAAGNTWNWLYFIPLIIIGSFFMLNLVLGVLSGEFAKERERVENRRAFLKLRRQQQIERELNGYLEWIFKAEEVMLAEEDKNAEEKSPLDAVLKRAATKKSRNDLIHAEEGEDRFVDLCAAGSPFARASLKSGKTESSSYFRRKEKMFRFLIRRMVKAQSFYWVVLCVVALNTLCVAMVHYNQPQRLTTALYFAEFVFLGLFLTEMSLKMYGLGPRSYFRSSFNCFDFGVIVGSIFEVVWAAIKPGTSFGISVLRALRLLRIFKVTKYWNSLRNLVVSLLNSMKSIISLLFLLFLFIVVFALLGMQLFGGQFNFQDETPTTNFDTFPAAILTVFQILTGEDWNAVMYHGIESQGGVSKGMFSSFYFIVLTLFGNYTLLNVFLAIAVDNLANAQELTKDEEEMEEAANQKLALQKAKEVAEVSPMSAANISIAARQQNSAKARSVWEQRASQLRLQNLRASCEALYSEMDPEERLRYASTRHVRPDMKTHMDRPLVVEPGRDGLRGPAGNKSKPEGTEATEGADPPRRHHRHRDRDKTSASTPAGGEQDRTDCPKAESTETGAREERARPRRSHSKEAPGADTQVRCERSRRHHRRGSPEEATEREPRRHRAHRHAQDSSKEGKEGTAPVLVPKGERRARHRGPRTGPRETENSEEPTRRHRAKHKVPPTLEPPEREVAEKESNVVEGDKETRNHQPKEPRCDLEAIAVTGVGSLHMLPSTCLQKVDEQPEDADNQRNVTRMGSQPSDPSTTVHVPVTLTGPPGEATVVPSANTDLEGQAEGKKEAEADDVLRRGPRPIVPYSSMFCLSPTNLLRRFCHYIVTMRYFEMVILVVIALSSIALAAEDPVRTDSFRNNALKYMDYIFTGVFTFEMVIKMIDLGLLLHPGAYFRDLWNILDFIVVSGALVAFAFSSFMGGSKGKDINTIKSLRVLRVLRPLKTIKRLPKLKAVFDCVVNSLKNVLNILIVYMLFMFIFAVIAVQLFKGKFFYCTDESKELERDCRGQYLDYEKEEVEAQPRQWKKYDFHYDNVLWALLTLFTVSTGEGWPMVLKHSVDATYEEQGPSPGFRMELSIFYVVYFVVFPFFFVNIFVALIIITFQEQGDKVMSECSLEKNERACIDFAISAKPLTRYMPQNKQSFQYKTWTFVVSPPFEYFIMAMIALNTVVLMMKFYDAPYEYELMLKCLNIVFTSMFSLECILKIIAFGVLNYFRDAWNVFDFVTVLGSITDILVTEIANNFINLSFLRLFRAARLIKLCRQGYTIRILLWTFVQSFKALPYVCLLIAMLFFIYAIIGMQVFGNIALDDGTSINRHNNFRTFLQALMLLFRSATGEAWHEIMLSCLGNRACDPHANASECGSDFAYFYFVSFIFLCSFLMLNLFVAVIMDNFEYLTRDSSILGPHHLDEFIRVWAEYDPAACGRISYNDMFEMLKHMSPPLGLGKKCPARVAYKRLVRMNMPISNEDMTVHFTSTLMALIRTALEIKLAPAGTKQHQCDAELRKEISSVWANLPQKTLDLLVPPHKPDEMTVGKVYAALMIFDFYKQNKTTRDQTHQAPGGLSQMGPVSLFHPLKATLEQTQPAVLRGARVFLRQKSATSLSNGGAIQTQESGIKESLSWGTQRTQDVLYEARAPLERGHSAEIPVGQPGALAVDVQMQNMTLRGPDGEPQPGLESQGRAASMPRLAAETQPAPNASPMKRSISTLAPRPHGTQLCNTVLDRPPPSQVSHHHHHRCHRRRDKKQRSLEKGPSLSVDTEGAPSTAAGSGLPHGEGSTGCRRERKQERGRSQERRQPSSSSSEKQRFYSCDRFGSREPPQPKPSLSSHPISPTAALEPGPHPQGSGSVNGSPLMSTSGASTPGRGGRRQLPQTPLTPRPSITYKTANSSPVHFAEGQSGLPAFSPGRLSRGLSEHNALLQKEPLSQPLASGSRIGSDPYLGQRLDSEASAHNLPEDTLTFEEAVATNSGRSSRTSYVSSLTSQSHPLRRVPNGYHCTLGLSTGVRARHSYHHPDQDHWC
Chain of Hydroxycarboxylic acid receptor 2 (Q8TDS4 whole entry): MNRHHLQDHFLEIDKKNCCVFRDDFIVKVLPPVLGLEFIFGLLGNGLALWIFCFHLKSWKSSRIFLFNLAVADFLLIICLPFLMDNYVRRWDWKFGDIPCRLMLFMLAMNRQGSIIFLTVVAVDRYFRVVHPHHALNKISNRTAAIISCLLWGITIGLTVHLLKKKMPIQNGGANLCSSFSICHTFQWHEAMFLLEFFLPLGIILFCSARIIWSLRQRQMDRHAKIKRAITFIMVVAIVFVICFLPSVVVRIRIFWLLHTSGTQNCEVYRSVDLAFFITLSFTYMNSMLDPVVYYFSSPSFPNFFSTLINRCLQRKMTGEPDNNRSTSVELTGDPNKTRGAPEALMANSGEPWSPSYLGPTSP
T1 sequence (P35367 whole entry): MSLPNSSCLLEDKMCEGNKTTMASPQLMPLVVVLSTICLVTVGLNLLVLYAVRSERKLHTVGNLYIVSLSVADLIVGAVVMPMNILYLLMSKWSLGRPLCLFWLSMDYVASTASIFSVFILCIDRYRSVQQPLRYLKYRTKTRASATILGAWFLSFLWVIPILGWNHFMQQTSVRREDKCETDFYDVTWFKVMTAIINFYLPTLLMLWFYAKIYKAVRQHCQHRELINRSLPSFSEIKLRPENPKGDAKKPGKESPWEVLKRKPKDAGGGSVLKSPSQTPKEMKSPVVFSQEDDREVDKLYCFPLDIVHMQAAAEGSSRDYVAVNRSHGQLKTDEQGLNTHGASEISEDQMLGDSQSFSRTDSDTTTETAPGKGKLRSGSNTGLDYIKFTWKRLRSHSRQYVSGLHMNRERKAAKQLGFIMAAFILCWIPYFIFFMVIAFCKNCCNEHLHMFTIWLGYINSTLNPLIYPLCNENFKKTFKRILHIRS
Chain of Cannabinoid receptor 1 (P21554 whole entry): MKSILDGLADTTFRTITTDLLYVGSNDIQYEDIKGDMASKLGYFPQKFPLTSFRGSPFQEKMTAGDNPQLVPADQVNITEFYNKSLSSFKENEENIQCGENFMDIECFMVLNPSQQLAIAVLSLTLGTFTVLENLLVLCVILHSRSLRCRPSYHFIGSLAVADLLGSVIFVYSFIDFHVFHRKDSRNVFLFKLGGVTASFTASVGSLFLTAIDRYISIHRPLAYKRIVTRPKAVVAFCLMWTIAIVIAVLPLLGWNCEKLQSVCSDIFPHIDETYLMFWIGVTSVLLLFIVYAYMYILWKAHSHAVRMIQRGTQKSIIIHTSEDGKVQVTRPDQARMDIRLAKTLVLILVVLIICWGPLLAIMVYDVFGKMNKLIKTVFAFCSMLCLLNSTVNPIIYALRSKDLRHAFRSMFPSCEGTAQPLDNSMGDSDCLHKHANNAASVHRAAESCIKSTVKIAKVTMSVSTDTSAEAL
Chain of Glucagon receptor (P47871 whole entry): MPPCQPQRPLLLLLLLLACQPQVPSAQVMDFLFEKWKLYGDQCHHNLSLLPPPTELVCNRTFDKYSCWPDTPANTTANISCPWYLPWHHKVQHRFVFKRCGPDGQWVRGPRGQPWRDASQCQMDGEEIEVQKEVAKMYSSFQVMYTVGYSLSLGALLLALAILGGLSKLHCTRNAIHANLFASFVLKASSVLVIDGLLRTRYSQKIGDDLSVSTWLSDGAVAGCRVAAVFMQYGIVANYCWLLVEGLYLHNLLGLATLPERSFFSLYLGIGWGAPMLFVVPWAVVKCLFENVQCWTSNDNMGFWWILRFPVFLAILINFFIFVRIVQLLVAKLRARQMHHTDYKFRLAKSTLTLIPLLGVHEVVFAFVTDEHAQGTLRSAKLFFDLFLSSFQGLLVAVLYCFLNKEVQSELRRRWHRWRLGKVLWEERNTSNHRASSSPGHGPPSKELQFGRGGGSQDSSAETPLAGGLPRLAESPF

CN(C)CCc1c[nH]c2ccc(CS(=O)(=O)N3CCCC3)cc12 [ALMOTRIPTAN]
AC50 (Histamine H1 receptor [1]): > 30 µM
AC50 (Histamine H1 receptor [2]): > 30 µM

CN(C)CCC=C1c2ccccc2CCc2ccccc21 [AMITRIPTYLINE]
AC50 (Glucagon receptor): > 30 µM
AC50 [3]: > 30 µM
AC50 [4]: > 10 µM
AC50 [5]: > 10 µM

O=C(O)COC(=O)Cc1ccccc1Nc1c(Cl)cccc1Cl [ACECLOFENAC]
AC50 (Androgen receptor): > 30 µM

CC(=O)SCC(Cc1ccccc1)C(=O)NCC(=O)OCc1ccccc1 (stereo not given) [RACECADOTRIL]
AC50 [5]: > 10 µM

C#CCN(C)Cc1ccccc1 [PARGYLINE]
AC50 (Histamine H1 receptor [1]): > 30 µM
AC50 (Histamine H1 receptor [2]): > 30 µM
AC50 [6]: > 30 µM

CN1CC2c3ccccc3Oc3ccc(Cl)cc3C2C1 (stereo not given) [ASENAPINE]
AC50 [7]: 13.7 nM

CC#CC(=O)N1CCC[C@H]1c1nc(-c2ccc(C(=O)Nc3ccccn3)cc2)c2c(N)nccn12 [ACALABRUTINIB]
AC50 [6]: > 30 µM

C[C@H](Cn1cnc2c(N)ncnc21)OCP(=O)(O)O [TENOFOVIR ANHYDROUS]
AC50 (Androgen receptor): > 30 µM

O=C(Cc1cccs1)N[C@@H]1C(=O)N2C(C(=O)[O-])=C(C[n+]3ccccc3)CS[C@H]12 [CEPHALORIDINE]
AC50 [6]: > 30 µM

CC(=O)Oc1ccccc1C(=O)O [ASPIRIN]
AC50 [7]: > 30000 nM
AC50 (Cannabinoid receptor 1): > 10 µM
AC50 (Androgen receptor): > 30 µM
AC50 (Glucagon receptor): > 30 µM
AC50 [3]: > 30 µM
AC50 [5]: > 10 µM

OCCOCCN1CCN(C(c2ccccc2)c2ccc(Cl)cc2)CC1 (stereo not given) [HYDROXYZINE]
AC50 (Histamine H1 receptor [1]): 0.45 µM
AC50 (Glucagon receptor): > 30 µM
AC50 [3]: > 30 µM
AC50 [4]: > 10 µM
AC50 (Histamine H1 receptor [2]): > 30 µM
AC50 [5]: > 10 µM

CCCCCCO[C@@H](C)c1cccc(-c2csc(NC(=O)c3cc(Cl)c(/C=C(\C)C(=O)O)c(Cl)c3)n2)c1OC [LUSUTROMBOPAG]
AC50 [6]: > 30 µM

CN(C)CCCC1(c2ccc(F)cc2)OCc2cc(C#N)ccc21 (stereo not given) [CITALOPRAM]
AC50 (Glucagon receptor): > 30 µM
AC50 [3]: > 30 µM
AC50 [4]: > 10 µM
AC50 [5]: > 10 µM

CCOC(=O)[C@H](CCc1ccccc1)N[C@@H](C)C(=O)N1Cc2ccccc2C[C@H]1C(=O)O
AC50 (Cannabinoid receptor 1): > 10 µM
AC50 (Glucagon receptor): > 30 µM
AC50 [3]: > 30 µM
AC50 [5]: > 10 µM

C[C@]12CCC(=O)C=C1CC[C@H]1[C@@H]3CC[C@](O)(C(=O)CO)[C@@]3(C)C[C@H](O)[C@@]12F [FLUDROCORTISONE]
AC50 (Glucagon receptor): > 30 µM
AC50 [3]: > 30 µM
AC50 [5]: > 10 µM

NCC1(CC(=O)O)CCCCC1 [GABAPENTIN]
AC50 [7]: > 30000 nM
AC50 (Cannabinoid receptor 1): > 10 µM
AC50 (Glucagon receptor): > 30 µM
AC50 [3]: > 30 µM

C[C@H](Nc1ncnc2[nH]cnc12)c1cc2cccc(Cl)c2c(=O)n1-c1ccccc1 [DUVELISIB]
AC50 [6]: > 30 µM

O=C(O)[C@@H](S)[C@@H](S)C(=O)O
AC50 [6]: > 30 µM

CCOc1ccccc1OCCN[C@H](C)Cc1ccc(OC)c(S(N)(=O)=O)c1 [TAMSULOSIN]
AC50 [7]: 790 nM

C[C@H](CS)C(=O)N1CCC[C@H]1C(=O)O [CAPTOPRIL]
AC50 (Androgen receptor): > 30 µM

Cc1c(C)c2c(c(C)c1O)CCC(C)(COc1ccc(CC3SC(=O)NC3=O)cc1)O2 (stereo not given) [TROGLITAZONE]
AC50 (Androgen receptor): 3.57 µM
AC50 (Glucagon receptor): > 30 µM
AC50 [3]: > 30 µM

C=CC1=C(C(=O)O)N2C(=O)[C@@H](NC(=O)/C(=N\O)c3csc(N)n3)[C@H]2SC1
AC50 (Androgen receptor): > 30 µM

Nc1nnc(-c2cccc(Cl)c2Cl)c(N)n1 [LAMOTRIGINE]
AC50 (Glucagon receptor): > 30 µM
AC50 [3]: > 30 µM
AC50 [4]: > 10 µM
AC50 [5]: > 10 µM
